Measurements: PubChem BioAssay (NCI)
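Interpolation was linear, between the two tested concentrations surrounding the appropriate level; five concentrations were tested over 48 hours in 96-well plates. At the GI50, growth is halved. The concentration for full growth arrest is given as TGI.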

Assays:
Assay in all cases: NCI tumour cell line growth inhibition, 48 h; in the data active = GI50 below about 0.43 µM; inactive = the rest
[1] = system: MDA-MB-231 breast
[2] = system: DU-145 prostate
[3] = system: NCI-H226 lung
[4] = system: LOX IMVI melanoma
[5] = system: SR leukemia
[6] = system: SW-620 colon
[7] = system: 786-0 renal
[8] = system: UACC-257 melanoma
[9] = system: SF-295 CNS
[10] = system: A549 NSCLC
[11] = system: SK-OV-3 ovarian
[12] = system: M14 melanoma
[13] = system: A498 renal
[14] = system: MOLT-4 leukemia
[15] = system: HCT-116 colon
[16] = system: SK-MEL-28 melanoma
[17] = system: HT29 colon
[18] = system: NCI-H460 lung
[19] = system: OVCAR-3 ovarian
[20] = system: UO-31 renal
[21] = system: MDA-N
[22] = system: CAKI-1 renal
[23] = system: HOP-92 NSCLC
[24] = system: NCI-H23 lung
[25] = system: OVCAR-8 ovarian
[26] = system: MALME-3M melanoma
[27] = system: SNB-19 CNS
[28] = system: RPMI-8226 leukemia
[29] = system: PC-3 prostate
[30] = system: SN12C renal
[31] = system: T-47D breast
[32] = system: NCI-H522 lung
[33] = system: HCC-2998 colon
[34] = system: OVCAR-5 ovarian
[35] = system: MDA-MB-435
[36] = system: BT-549 breast
[37] = system: RXF 393 renal
[38] = system: OVCAR-4 ovarian
[39] = system: SF-539 CNS
[40] = system: EKVX NSCLC
[41] = system: SK-MEL-2 melanoma
[42] = system: IGROV1 ovarian
[43] = system: NCI/ADR-RES ovarian
[44] = system: HCT-15 colon
[45] = system: K-562 leukemia
[46] = system: COLO 205 colon
[47] = system: HS 578T breast
[48] = system: SK-MEL-5 melanoma
[49] = system: HL-60(TB) leukemia
[50] = system: CCRF-CEM leukemia
[51] = system: SF-268 CNS
[52] = system: ACHN renal
[53] = system: KM12 colon
[54] = system: HOP-62 NSCLC
[55] = system: U251 CNS
[56] = system: UACC-62 melanoma

C[CH2][Pb]([CH2]C)([CH2]C)[O]C(=O)c1ccc2ccccc2n1
> 10 µM: TGI [1] | TGI [2] | TGI [3] | TGI [4] | TGI [5] | TGI [6] | TGI [7] | TGI [8] | TGI [9] | TGI [10] | TGI [11] | TGI [12] | TGI [13] | TGI [14] | TGI [15] | TGI [16] | TGI [17] | TGI [18] | TGI [19] | TGI [20] | TGI [21] | TGI [22] | TGI [23] | TGI [24] | TGI [25] | TGI [26] | TGI [27] | TGI [28] | TGI [29] | TGI [30] | TGI [31] | TGI [32] | TGI [33] | TGI [34] | TGI [35] | TGI [36] | TGI [37] | TGI [38] | TGI [39] | TGI [40] | TGI [41] | TGI [42] | TGI [43] | TGI [44] | TGI [45] | TGI [46] | TGI [47] | TGI [48] | TGI [49] | TGI [50] | TGI [51] | TGI [52] | TGI [53] | TGI [54] | TGI [55] | TGI [56]
inactive: GI50 [1] > 10 µM | GI50 [2] > 10 µM | GI50 [3] > 10 µM | GI50 [4] > 10 µM | GI50 [5] > 10 µM | GI50 [6] > 10 µM | GI50 [7] > 10 µM | GI50 [8] > 10 µM | GI50 [9] > 10 µM | GI50 [10] > 10 µM | GI50 [11] > 10 µM | GI50 [12] > 10 µM | GI50 [13] > 10 µM | GI50 [14] > 10 µM | GI50 [15] > 10 µM | GI50 [16] > 10 µM | GI50 [17] > 10 µM | GI50 [18] > 10 µM | GI50 [19] > 10 µM | GI50 [20] > 10 µM | GI50 [21] > 10 µM | GI50 [22] > 10 µM | GI50 [23] > 10 µM | GI50 [24] > 10 µM | GI50 [25] > 10 µM | GI50 [26] > 10 µM | GI50 [27] > 10 µM | GI50 [28] > 10 µM | GI50 [29] > 10 µM | GI50 [30] > 10 µM | GI50 [31] > 10 µM | GI50 [32] > 10 µM | GI50 [33] > 10 µM | GI50 [34] > 10 µM | GI50 [35] > 10 µM | GI50 [36] > 10 µM | GI50 [37] > 10 µM | GI50 [38] > 10 µM | GI50 [39] > 10 µM | GI50 [40] > 10 µM | GI50 [41] > 10 µM | GI50 [42] > 10 µM | GI50 [43] > 10 µM | GI50 [44] > 10 µM | GI50 [45] > 10 µM | GI50 [46] > 10 µM | GI50 [47] > 10 µM | GI50 [48] > 10 µM | GI50 [49] > 10 µM | GI50 [50] > 10 µM | GI50 [51] > 10 µM | GI50 [52] > 10 µM | GI50 [53] > 10 µM | GI50 [54] > 10 µM | GI50 [55] > 10 µM | GI50 [56] > 10 µM
